The subject of the assay is nasopharyngeal carcinoma cells (5-8 F, SUNE-1, HONE-1) versus other cancer cells. As to the kind of experiment: Octa-FNP fluorescent nano-probe screening of tumor cells (laser confocal imaging, FACS). Format: cell-based. The following applies: 3 h incubation, FIG. 1. The method, then: In this example, a peptide octavalent fluorescent nanoprobe based on tetramer far-red fluorescent protein was prepared by using a method for constructing a peptide fluorescent probe having a multivalent effect and a nanosized effect invented in the previous research. The probe was used to detect and screen different types of tumor cell lines, in order to screen and identify the tumor-targeting property of the peptide, […] (SEQ ID NO: 3).

For “LTVSPWYLTVSPWY (a targeted therapeutic peptide for nasopharyngeal carcinoma)”, the “induction of tumor cell death” value was “can effectively induce the death of tumor cells” and the “tumor-targeting property of the peptide” value is given as “excellent tumor-targeting property to nasopharyngeal carcinoma cells”.

(Values after US9371364B2, “Dual-targeted therapeutic peptide for nasopharyngeal carcinoma, nanoparticles carrying same and uses thereof” (HUAZHONG UNIVERSITY OF SCIENCE AND TECHNOLOGY, priority 2012, dated 2016).)
